Measurements reported in US12252481B2, “Anti-viral compounds” (Aligos Therapeutics, Inc., priority 2021, dated 2025).
Like-named read-outs stand apart in the source and are kept apart here.

Experiments:
[1] = tested on: SARS-CoV-2-GHB-03021/2020; type: cell-based; settings: read-out: VeroE6 + CP (EC50)
[2] = tested on: human beta-coronavirus OC43; assay: OC43 coronavirus antiviral assay in HeLa cells (cytopathic effect, cell-titer-glo); type: cell-based; settings: Betacoronavirus 1, OC43, HeLa, 144 h, 6 days at 33° C., read-out: EC50 (class)
human cathepsin L = biological target: T1, human cathepsin L (Homo sapiens, UniProt P07711); assay: Cathepsin L assay (Z-FR-AMC fluorescence); type: biochemical; settings: 10 pM human cathepsin L, 30 mins preincubation, Z-FR-AMC 2 μM
T1 construct: purchased R&D Systems
T1 sequence (P07711 114-333): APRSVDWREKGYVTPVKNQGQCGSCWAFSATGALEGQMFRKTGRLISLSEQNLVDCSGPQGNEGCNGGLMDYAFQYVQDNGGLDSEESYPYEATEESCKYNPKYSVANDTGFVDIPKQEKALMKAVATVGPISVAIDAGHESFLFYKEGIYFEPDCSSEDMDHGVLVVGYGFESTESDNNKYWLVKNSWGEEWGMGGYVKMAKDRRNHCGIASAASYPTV
Method in brief: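 IC50 values were taken from four-parameter fits of fluorescence read at 355/460 nm every 2 minutes for 30 minutes. The reaction started when 2 μM Z-FR-AMC was added. Before that, 10 pM human cathepsin L had been preincubated with inhibitor for 30 minutes.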

HRV3C = biological target: T2, HRV3C (Human rhinovirus 14, UniProt P03303); assay: biochemical; parameters: species or system HRV; settings: HRV3C, 30 mins preincubation, SAMDI-MS
T2 construct: 3CLpro and HRV3C was added using a Multidrop Combi
T2 sequence (P03303 1538-1719): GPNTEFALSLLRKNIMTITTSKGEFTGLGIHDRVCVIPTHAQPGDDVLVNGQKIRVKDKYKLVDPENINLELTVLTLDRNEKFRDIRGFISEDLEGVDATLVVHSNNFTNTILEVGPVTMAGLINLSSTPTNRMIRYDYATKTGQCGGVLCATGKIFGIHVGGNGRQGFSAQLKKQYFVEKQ

[3] = tested on: B.1.1.7 lineage SARS-CoV-2; assay: microbe, parasite or virus in culture; type: cell-based; settings: Severe acute respiratory syndrome coronavirus 2, 96 h; read-out: A549-dual_ACE2_TMPRSS2 (EC50)
SARS-Cov-2 3CLpro = biological target: T3, SARS-Cov-2 3CLpro (Severe acute respiratory syndrome coronavirus 2, UniProt P0DTD1); assay: biochemical; settings: 3CLpro, 30 mins preincubation, SAMDI-MS; read-out: SARS-Cov-2 IC50 (class)
T3 construct: 3CLpro and HRV3C was added using a Multidrop Combi

Compound	EC50 [1]	EC50 [2]	IC50 (human cathepsin L)	IC50 (HRV3C; read-out: HRV IC50 (bound))	EC50 [3]	IC50 (SARS-Cov-2 3CLpro)	IC50 (HRV3C; read-out: HRV IC50 (class))
CC(C)(C)[C@H](NC(=O)C(F)(F)F)C(=O)N1C[C@H]2[C@@H]([C@H]1C(=O)N[C@H](C#N)C[C@@H]1CCNC1=O)[C@H]1C=C[C@@H]2C1 [Example 1, (1S,3aR,4S,7R,7aS)-N-((S)-1-cyano-2-((S)-2-oxopyrrolidin-3-yl)ethyl)-2-((S)-3,3-dimethyl-2-(2,2,2-trifluoroacetamido)butanoyl)-2,3,3a,4,7,7a-hexahydro-1H-4,7-methanoisoindole-1-carboxamide]	< 100 nM	< 100 nM	≥ 10000 nM	> 10000 nM	< 100 nM	< 20 nM	–
CC(C)(C)[C@H](NC(=O)C(F)(F)F)C(=O)N1C[C@@H]2[C@H]3C[C@H]([C@@H]4C[C@@H]43)[C@@H]2[C@H]1C(=O)N[C@H](C#N)C[C@@H]1CCNC1=O [Example 2, (1R,2S,3S,6R,7S,8S,10R)—N-[(1S)-1-cyano-2-[(3S)-2-oxopyrrolidin-3-yl]ethyl]-4-[(2S)-3,3-dimethyl-2-(2,2,2-trifluoroacetamido)butanoyl]-4-azatetracyclo[5.3.1.0^{2,6}0.0^{8,10}]undecane-3-carboxamide]	< 100 nM	100 to 1000 nM	≥ 10000 nM	> 10000 nM	< 100 nM	20 to 200 nM	–
CC(C)(C)[C@H](NC(=O)C(F)(F)F)C(=O)N1C[C@H]2[C@@H]([C@H]1C(=O)N[C@H](C#N)CC1Cn3nccc3NC1=O)[C@H]1C=C[C@@H]2C1 (stereo partly drawn) [Example 9, (1S,3aR,4S,7R,7aS)—N-((1S)-1-cyano-2-(5-oxo-4,5,6,7-tetrahydropyrazolo[1,5-a]pyrimidin-6-yl)ethyl)-2-((S)-3,3-dimethyl-2-(2,2,2-trifluoroacetamido)butanoyl)-2,3,3a,4,7,7a-hexahydro-1H-4,7-methanoisoindole-1-carboxamide]	< 100 nM	< 100 nM	≥ 10000 nM	> 10000 nM	100 to 1000 nM	< 20 nM	–
O=C(NC1CC1)C(=O)C(C[C@@H]1CCNC1=O)NC(=O)[C@@H]1[C@@H]2[C@H](CN1C(=O)[C@@H]1C[C@]13CCCc1ccccc13)[C@@H]1C=C[C@H]2C1 (stereo partly drawn) [Example 11, (1S,3aR,4S,7R,7aS)—N-(4-(cyclopropylamino)-3,4-dioxo-1-((S)-2-oxopyrrolidin-3-yl)butan-2-yl)-2-((1R,2R)-3′,4′-dihydro-2′H-spiro[cyclopropane-1,1′-naphthalene]-2-carbonyl)-2,3,3a,4,7,7a-hexahydro-1H-4,7-methanoisoindole-1-carboxamide]	100 to 1000 nM	100 to 1000 nM	≥ 10000 nM	–	100 to 1000 nM	< 20 nM	200 to 2000 nM
CC(C)(C)[C@H](NC(=O)C(F)(F)F)C(=O)N1C[C@@H]2[C@@H]3CC[C@@H](C3)[C@@H]2[C@H]1C(=O)N[C@H](C#N)C[C@@H]1CCNC1=O [Example 12, (1S,3aR,4R,7S,7aS)-N-((S)-1-cyano-2-((S)-2-oxopyrrolidin-3-yl)ethyl)-2-((S)-3,3-dimethyl-2-(2,2,2-trifluoroacetamido)butanoyl)octahydro-1H-4,7-methanoisoindole-1-carboxamide]	< 100 nM	< 100 nM	≥ 10000 nM	> 10000 nM	< 100 nM	< 20 nM	–
C#CC(C)(C)[C@H](NC(=O)C(F)(F)F)C(=O)N1C[C@@H]2[C@@H]3CC[C@@H](C3)[C@@H]2[C@H]1C(=O)N[C@H](C#N)C[C@@H]1CCNC1=O [Example 13, (1S,2S,3S,6R,7R)—N-[(1S)-1-cyano-2-[(3S)-2-oxopyrrolidin-3-yl]ethyl]-4-[(2S)-3,3-dimethyl-2-(2,2,2-trifluoroacetamido)pent-4-ynoyl]-4-azatricyclo[5.2.1.0^{2,6}]decane-3-carboxamide]	< 100 nM	100 to 1000 nM	≥ 10000 nM	> 10000 nM	< 100 nM	20 to 200 nM	–
